Where no end group is shown, it is not given here.
Tested on: Candida albicans strain 820
Assay: ultrasensitive radial diffusion assay in agarose gels, Candida
Assay type: cell-based
Conditions: underlay agar pH 7.4, overnight incubation, FIG. 5c
Description: Aliquots of these column fractions were dried by vacuum centrifugation, resuspended in a small volume (approximately 17 μl) of 0.01% HOAc and 5 μl samples were tested for antimicrobial activity against Escherichia coli ML-35, Listeria monocytogenes strain EGD and Candida albicans strain 820, by the ultrasensitive radial diffusion technique described by Lehrer, R. I. et al. J Immunol Meth (1991) 137:167-173. […] A 1 mm diameter clear zone around the sample well after overnight incubation corresponded to 10 units of microbicidal activity.
The radial diffusion assay in agarose gels described in Example 1 was also used to test the activity of the purified gallinacins. FIGS. 5a, 5b and 5c show the results against three test organisms in units described as above. Rabbit defensin (NP-1) and human defensin (HNP-1) were used as controls.

Substance	antifungal activity against Candida albicans
Gal1: 39-residue antimicrobial peptide isolated from chicken neutrophils, six cysteines in three intramolecular disulfide bonds	effective
Gal2: 36-residue antimicrobial peptide isolated from chicken neutrophils, six cysteines in three intramolecular disulfide bonds (LFCKGGSCHFGGCPSHLIKVGSCFGFRSCCKWPWNA; not fully specified (residues 3, 8, 13, 23, 29, 30, bridges); also: native peptide: three intramolecular disulfides, pairing not given here)	relatively poor activity
Gal1α: antimicrobial peptide isolated from chicken neutrophils; differs from Gal1 only in positions 10, 20 and 32	effective

Source: patent publication US5635594A, “Gallinacins - antibiotic peptides” (University of California, Los Angeles, priority 1994, dated 1997)
